In US11338026B2, “Identification of immunologically protective neo-epitopes for the treatment of cancers” (THE UNIVERSITY OF CONNECTICUT, priority 2014, dated 2022):
Read-outs that look alike come from different tables or passages of the source. Values belong to the compound of their own block, whether it stands above or below them. Peptide text beside a SMILES is read from it.

How the values were obtained:
[1] = tested on: CD8+ cells; experiment: Intracellular IFN-γ assay by FACS (ICS) on lymphocytes of immunized mice; assay type: in vivo, BALB/c mice; details: for immunogenicity of WT counterpart (functional effector T cells): mice immunized with the WT counterpart of the named neo-epitope
Protocol: Intracellular IFN-γ assay by FACS and ELISPOT. Lymphocytes were incubated either with or without 1-10 μg/ml peptide. GolgiPlug (BD Biosciences, San Jose, Calif.) was added 1 h later. After incubation of 12 to 16 h, cells were stained for CD44 (clone IM7), CD4 (clone GK1.5) and CD8 (clone 53-6.7) (BD Biosciences, San Jose, Calif.), fixed and permeabilized using the Cytofix/Cytoperm™ kit (BD Biosciences, San Jose, Calif.), and stained for intracellular IFN-γ using Phycoerythrin-conjugated anti-mouse IFN-γ (clone XMG1.2, BD Biosciences, San Jose, Calif.). Cells were stained with 1 μl antibody/million cells in 50 μl staining buffer (PBS with 1% bovine serum albumin) and incubated for 20 min at 4° C. in the dark, or according to the manufacturer's instructions. Cells without peptide stimulation were used as a negative control, and the values for these controls was very close to the values seen with the negative control peptide. Typically, 95,000-129,000 lymphocytes (14,500-17,000 CD8+CD4− cells) were acquired. The background is consistently very low (10% of the signal).
(§1) All 18 peptides were used to immunize BALB/c mice. The draining lymph nodes (dLNs) of immunized mice were harvested one week after the single immunization, and the cells were stimulated in vitro for 16 h without any added peptide, the mutant peptide used for immunization, or the corresponding wild type peptide. The CD8+ cells were analyzed for activation (CD44+) and effector function (intracellular IFNγ+). (see Materials and Methods regarding the details of FACS analysis.) All possible patterns of immune-reactivity were observed (FIG. 3A): no immune response (12/18), a mutant peptide-specific, i.e. tumor-specific immune response (5/18), and a cross-reactive response between the mutant and corresponding wild type peptides (1/18).

[2] = tested on: CD8+ cells; experiment: IFNγ ELISPOT on CD8+ cells of immunized mice; assay type: in vivo, BALB/c mice; details: for ELISpot: mice immunized with mutant peptide; for CD8 T cell response of immunized mice: text, ELISPOT
Protocol: For the ELISPOT assays, the negative controls were CD8+ cells from immunized mice without peptide stimulation. […] The magnitude of responses was rated by mean spot numbers per million CD8+ cells: 5-10 (+); 11-20 (++); 21-50 (+++); 51-100(++++) and >100(+++++).
as §1

[3] = tested on: CMS5; experiment: Tumor challenge / tumor rejection after peptide immunization, CMS5; assay type: in vivo, BALB/c mice
Protocol: Tumor challenge and representation of tumor growth. AUC as a tool to measure tumor growth has been described previously. Briefly, AUC was calculated by selecting “Curves & Regression” and then “Area under curve” from the “analyze” tool, using the Prism 5.0 (GraphPad Software, Inc., La Jolla, Calif.). Grubb' test was used to remove up to one outlier from each group.
Depletion of T cell subsets. Immunized mice were depleted of CD8 cells using anti-CD8 rat IgG2b monoclonal antibody 2.43), or depleted of CD4 cells using anti-CD4 rat IgG2b monoclonal antibody GK1.5. Depleting antibodies were given in PBS intraperitoneally two days before tumor challenge and every seven days for the duration of the experiment. First three injections of depleting antibodies were 250 μg per mouse and the later injections were 500 μg per mouse. For treatment with antagonistic antibodies, mice were treated with anti-CD25 antibody (clone PC61, 250 μg, two days before tumor challenge) or anti-CTLA-4 antibody (clone 9D9, 100 μg, seven days before and every three days after tumor challenge). The appropriate T cell sub-sets were depleted by over 95%.
Lack of immuno-protective activity of the strongest K^d-binding neo-epitopes. […]

[4] = target: T1, H-2 K^d (Mus musculus, UniProt P01902); experiment: Binding assays: inhibition of binding of a radiolabeled standard peptide to purified MHC molecules
T1 sequence (P01902 22-368): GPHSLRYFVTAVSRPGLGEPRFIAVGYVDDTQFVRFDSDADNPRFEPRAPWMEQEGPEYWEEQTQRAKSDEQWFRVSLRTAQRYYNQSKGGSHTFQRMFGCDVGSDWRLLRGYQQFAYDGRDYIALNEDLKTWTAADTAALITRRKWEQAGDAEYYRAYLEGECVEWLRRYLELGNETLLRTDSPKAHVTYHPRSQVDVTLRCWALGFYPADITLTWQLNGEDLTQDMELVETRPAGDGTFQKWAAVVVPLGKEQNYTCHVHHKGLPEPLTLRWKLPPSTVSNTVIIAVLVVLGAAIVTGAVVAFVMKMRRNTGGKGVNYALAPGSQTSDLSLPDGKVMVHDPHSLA
T1 sequence (P01887 21-119 partner): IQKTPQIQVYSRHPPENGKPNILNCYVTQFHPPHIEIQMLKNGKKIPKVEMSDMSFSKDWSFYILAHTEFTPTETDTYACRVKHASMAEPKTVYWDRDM
Protocol: Binding assays. Binding of peptides to H-2 K^d was determined using quantitative assays based on the inhibition of binding of a radiolabeled standard peptide to purified MHC molecules essentially as described previously. […] Under the conditions utilized, where [label]<[MHC] and IC50≥[MHC], the measured IC50 values are reasonable approximations of the dissociation constant values.

Compound: CC[C@H](C)[C@H](NC(=O)[C@H](Cc1ccc(O)cc1)NC(=O)[C@@H](N)[C@@H](C)O)C(=O)N[C@@H](CCCNC(=N)N)C(=O)N1CCC[C@H]1C(=O)N[C@@H](Cc1ccccc1)C(=O)N[C@@H](CCC(=O)O)C(=O)N[C@H](C(=O)N[C@@H](CCCCN)C(=O)N[C@H](C(=O)O)C(C)C)[C@@H](C)O [Ccdc85c, TYIRP(f/L)ETKV] (H-TYIRPFETKV-OH)
immunogenicity of WT counterpart (functional effector T cells) [1]: elicited functional effector T cells in vivo

Compound: CSCC[C@H](NC(=O)[C@@H]1CCCN1C(=O)[C@@H](NC(=O)[C@H](Cc1ccc(O)cc1)NC(=O)[C@@H](N)CC(=O)O)C(C)C)C(=O)N[C@@H](CCC(=O)O)C(=O)N[C@@H](CCC(N)=O)C(=O)N1CCC[C@H]1C(=O)N[C@@H](CCCNC(=N)N)C(=O)O [Alkbh6.2, D(y/D)VPMEQPR] (H-DYVPMEQPR-OH; N-terminus and C-terminus assumed)
CD8 T cell response by intracellular cytokine assay [1]: un-detectable by the intracellular cytokine assay
ELISpot [2]: ++ (10-20 spots/10^6 CD8 = ++)
CD8 T cell response of immunized mice [2]: modest CD8 T cell response
protection from tumor growth / tumor rejection [3]: representative neo-epitopes that do

Compound: CC(C)C[C@H](NC(=O)[C@@H]1CCCN1C(=O)[C@@H](NC(=O)[C@H](CCCNC(=N)N)NC(=O)[C@H](CCCCN)NC(=O)[C@H](CC(C)C)NC(=O)[C@H](CC(C)C)NC(=O)[C@@H]1CCCN1C(=O)[C@@H](NC(=O)[C@H](Cc1ccc(O)cc1)NC(=O)[C@@H](N)Cc1ccc(O)cc1)C(C)C)C(C)C)C(=O)O [Alms1.2] (H-YYVPLLKRVPL-OH)
IC50 [4]: 1.48 µM
IC50 ([4]; mutant peptide, read-out: Measured IC50 for K^d (Mut/WT): Mut): 0.421 µM
immunogenicity of WT counterpart (functional effector T cells) [1]: elicited functional effector T cells in vivo
ELISpot [2]: ++ (10-20 spots/10^6 CD8 = ++)

Compound: SIINFEKL (listed as Gallus gallus) [reference compound]
CD8 response after second immunization (Prime vs Boost) ([1]; 100 μg peptide once or twice with a 29-day interval): amplified by a second immunization

Compound: CC(C)[C@H](NC(=O)[C@H](CO)NC(=O)[C@@H](NC(=O)[C@H](CCCCN)NC(=O)[C@H](C)NC(=O)[C@H](CCCCN)NC(=O)[C@H](CO)NC(=O)[C@@H](NC(=O)[C@H](Cc1ccccc1)NC(=O)[C@H](Cc1ccc(O)cc1)NC(=O)CN)C(C)C)[C@@H](C)O)C(=O)O (racemic) [Abr]
immunogenicity of WT counterpart (functional effector T cells) [1]: elicited functional effector T cells in vivo

IC50 ([4]; WT counterpart peptide, read-out: Measured IC50 for K^d (Mut/WT): WT): 7.05 µM
Compound: CSCC[C@H](NC(=O)[C@H](CC(C)C)NC(=O)CNC(=O)[C@@H]1CCCN1C(=O)[C@H](Cc1ccccc1)NC(=O)[C@@H](NC(=O)[C@@H](N)CCC(N)=O)C(C)C)C(=O)N[C@@H](CCC(=O)O)C(=O)N[C@@H](CC(C)C)C(=O)O [Atxn10.1] (H-QVFPGLMEL-OH; N-terminus and C-terminus assumed)
CD8 T cell response by intracellular cytokine assay [1]: un-detectable by the intracellular cytokine assay
ELISpot [2]: +++ (21-50 spots/10^6 CD8 = +++)
CD8 T cell response of immunized mice [2]: modest CD8 T cell response
protection from tumor growth / tumor rejection [3]: representative neo-epitopes that do
